Reference: US20080145313A1, “Compositions and Methods for the Treatment and Prevention of Neoplastic Disorders” (Genesis Research & Development Corporation Limited, priority 2006, published 2008)
Like-named read-outs stand apart in the source and are kept apart here.

Columns and labels:
A549 xenograft tumor = experiment: Xenograft tumor growth of A549 cells transfected with siRNA pre-implantation in CD-1 nude mice; format: in vivo, mouse
Protocol: To determine the effect of RRM1 knockdown on tumor growth, A549 cells (human lung cancer cell line; ATCC No. CCL-185) were reverse-transfected prior to implantation in CD-1 nude mice. In 175 cm^2 culture flasks, 10×10^6 A549 cells (in RPMI supplemented with 10% fetal calf serum) were added to pre-made lipoplexes. To make lipoplexes, Lipofectamine RNAiMAX in serum-free RPMI was added to an equal volume of serum-free RPMI containing siRNA (RRM1-2; SEQ ID NO: 4831 (DNA), and SEQ ID NO: 5137 (RNA)) and a control siRNA (SEQ ID NO: 4804 (DNA), and SEQ ID NO: 5301 (RNA)). After addition of cells, the final concentration of siRNA in the flask was 10 nM. Untransfected cells served as a further control. Flasks were incubated at 37° C. for 24 h to allow transfection to proceed.
The cells were harvested by trypsinization 24 h after the transfection, washed twice in PBS and viable cells were counted. Equal numbers of cells (1×10^7) were inoculated into CD-1 nude mice (n=7-9). Briefly, 5 to 7 weeks old nude mice were subcutaneously (s.c.) injected in the right flank with A549 cells in 100 μl PBS. Tumor growth was monitored 3 times per week by measuring tumor sizes using a digital caliper. Tumor volume was expressed in […] using the formula: V=a^2×b×0.52, where a and b represent the minimum and maximum tumor diameter, respectively. Mean tumor volumes calculated from each measurement were then plotted in a standard graph to compare the tumor growth of transfected cells to that of control.
To determine the effect of siRNA-mediated knockdown of HK-II, CAD, IMPDH2, RRM2, SLC16A1 and SLC29A1 on tumor growth, A549 cells (human lung cancer cell line; ATCC No. CCL-185) were reverse-transfected prior to implantation in CD-1 nude mice as described above with siRNAs given in SEQ ID NO: 5307 (DNA), and SEQ ID NO: 5304 (RNA) for RRM2, SEQ ID NO: 4932 (DNA), and SEQ ID NO: 5227 (RNA) for ENT1, SEQ ID NO: 4813 (DNA), and SEQ ID NO: 5119 (RNA) for HK-II, SEQ ID NO: 4827 (DNA), and SEQ ID NO: 5133 (RNA) for CAD, SEQ ID NO: 4879 (DNA), and SEQ ID NO: 5182 (RNA) for IMPDH2 and SEQ ID NO: 4924 (DNA), and SEQ ID NO: 5219 (RNA) for SLC16A1, respectively. The siRNA given in SEQ ID NO: 4804 (DNA), and SEQ ID NO: 5301 (RNA) was used as control.
In two separate experiments, CD-1 mice were divided into five groups that received untransfected A549 cells, cells transfected with control siRNA or three different siRNAs (as listed above), respectively. Cells were transfected in vitro using the method as described in Example 8, and 24 h after transfection, s.c. inoculated into mice. Tumor growth was measured 3 times per week. In the first experiment, mice received cells transfected with siRNA targeting RRM2, HK-II or SLC29A1 and were monitored for 33 days. In the second experiment, mice received cells transfected with siRNA targeting CAD, IMPDH2 or SLC16A1, and were monitored for 26 days. […] Similarly, preliminary data indicated tumor growth rate was reduced for the groups receiving cells transfected with siRNA targeting CAD and SLC16A1. Twenty-six days after cell inoculation, the tumor volume for mice with cells transfected with siRNA targeting CAD or SLC16A1 was 97.2±7.3 mm^3 or 110.1±28.1 mm^3, respectively.

A549 xenografted tumors = experiment: Intratumoral siRNA treatment of established A549 tumors in CD-1 nude mice; format: in vivo, mouse
Protocol: A549 cells (6−8×10^6 cells) were s.c. inoculated into CD-1 nude mice as described above. When tumors reached an average volume of approximately 100 mm^3, the tumor-bearing mice were randomly assigned into three different treatment groups (RRM1 siRNA, control siRNA and PBS) with 5 to 6 mice in each group. There were no significant differences in tumor volumes among groups prior to the initiation of treatments. Mice were anesthetized by gaseous isoflurane and 50 μl siRNA or PBS was injected directly into tumors using a 30-gauge needle. Two experiments were conducted. In the first experiment (IT#1), the animals received a dose of 50 μg of siRNA in each intratumoral (i.t.) injection and the injections were performed 3 times per week for 2 weeks. In the second experiment (IT#2), 25 μg siRNA was used and mice were injected 3 times per week for 3 weeks. The tumor volume was determined immediately before each injection by perpendicular measurements of the shortest and longest diameters as described above.

A549 tumors = experiment: Uptake of Alexa 555-labeled siRNA into A549 tumor cells in vivo after intratumoral injection; set-up: species or system mouse; settings: 25 μg i.t.
Protocol: An Alexa 555-labeled control siRNA was used to determine the cellular uptake of siRNA in tumor tissues when given via intratumoral (i.t.) injection. A549 cells (6−8×10^6 cells) were s.c. inoculated into CD-1 nude mice. Once the A549 tumors reached a size of approximately 100 mm^3, mice were divided into two groups of four mice each. The Alexa 555-labeled Stealth™ siRNA (SEQ ID NO: 5111 (DNA), and SEQ ID NO: 5300 (RNA); Invitrogen Corp.) at a dose of 25 μg (in 50 μl) was injected into tumors of one group. 50 μl PBS was injected into tumors of a negative control group. Tumors were harvested at 6 and 24 h after injection and placed in a labeled cryomold (Tissue-TeK® Crymold®; ProSciTech, Thuringowa, Queensland, Australia) and covered with OCT tissue freezing medium (O.C.T. Compound, ProSciTech). The mold was gently submerged in liquid nitrogen for approximately one minute until OCT turned white and opaque. Tissues were stored at minus 80° C. until sections were cut. Tissues were allowed to reach −20° C. before processing in a Leica Cryostat (Leica Microsystems, Inc., Bannockburn Ill.) at 10 microns. Sections were picked up on Super Frost Plus slides (Esco, Biolab Scientific, New Zealand). After air-drying, sections were fixed in freshly prepared 2% paraformaldehyde solution for 2 minutes at room temperature and then rinsed in PBS to remove the fixative. The slides were mounted in Prolong Gold antifade reagent with DAPI (Molecular Probes®, Invitrogen Corp.), covered with cover slips and sealed to the slides with clear nail polish. The slides were stored at 4° C. in the dark. Fluorescence in the tumor samples was visualized using a Zeiss Axioskop Microscope (Carl Zeiss microimaging, Inc., Thornwood N.Y.) and Leica SP-2 Confocal Microscope (Leica Microsystems, Inc.). Autofluorescence in tumor tissues was very low in all filters examined (green, red and UV). […]

A549 cells [1] = experiment: MTT cell proliferation assay of A549 cells transfected with thymidylate synthase siRNA; format: cell-based, human; settings: 6, 12 and 50 nM siRNA; 72 h
Protocol: siRNA mediated silencing in Human A549 cells A549 cells (ATCC No. CCL-185), a human lung cancer cell line, were cultured in RPMI 1640 medium with 5% v/v dialyzed fetal calf serum. Cells were seeded at a density of 2×10^4 cells/100 μl in 96-well plates. Stealth™ siRNA duplexes targeting the thymidylate synthase (SEQ ID NO: 23) gene were transfected at concentrations of 6, 12, and 50 nM into the A549 cells using Lipofectamine 2000 transfection reagent (Invitrogen). After 72 h, cell viability was assessed by measuring cell proliferation using a standard MTT assay (Mosman, J. Immunol. Methods 65:55-63, 1983).

A549 cells [2] = experiment: Growth inhibition of siRNA-transfected A549 cells, SYBR Green I DNA content; format: cell-based, human; settings: 10 nM siRNA; DNA content 96 hours after transfection
Procedure, shortened: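 A549 cells reverse-transfected with 10 nM Stealth siRNAs via Lipofectamine RNAiMAX, seeded at 5×10^3 cells/cm^2 in RPMI 1640/10% FCS; non-specific siRNA control. DNA content read 96 h post-transfection by SYBR Green I fluorescence (ex 485/em 535 nm) after freeze-thaw and Triton X-100 lysis; mean of three wells.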

HCT-116 cells = experiment: 5FU toxicity in HCT-116 cells after TYMS or DHFR knockdown, SYBR Green; format: cell-based; settings: cells transfected with 0.1 nM siRNA; 5FU continuous for 3 days; read-out: IC50 value of 5FU following TYMS knockdown, HCT-116
Protocol: (§1) HCT-116 and A549 cells were transfected as described above with 0.1, 1.0 and 10 nM of three TYMS-specific siRNAs, labeled TYMS-1, TYMS-2 and TYM-3 (SEQ ID NO: 4833-4835 (DNA), and SEQ ID NO: 5139-5141 (RNA), or 1.0 and 10 nM control siRNAs (809-ctrl; SEQ ID NO: 4805 (DNA), and SEQ ID NO: 5302 (RNA) and 81ctrl; SEQ ID NO: 4804 (DNA), and SEQ ID NO: 5301 (RNA)). HCT-116 and A549 cells were also similarly transfected with 0.1, 1.0 and 10 nM of three DHFR-specific siRNAs, labeled DHFR-1, DHFR-2 and DHFR-3 (SEQ ID NO: 4836-4838 (DNA), and SEQ ID NO: 5142-5144 (RNA)), or control siRNA (SEQ ID NO: 4805 (DNA), and SEQ ID NO: 5302 (RNA)). Twenty four hours after transfection, cells were exposed to 5FU using a serial dilution starting at 44 μM, in medium containing either 10% normal FCS or 10% dialyzed FCS as described above. 5FU treatment was continuous for 3 days, at which time cell growth was analyzed by measuring DNA content per well using the SYBR Green assay outlined above. […] This combinatorial inhibitory effect was further increased when experiments were done in medium containing dialyzed FCS (FIGS. 27D-F; FIGS. 28D-F).
(§2) FIGS. 29 and 30 show transfection with DHFR siRNA similarly led to a dose-dependent increase in growth inhibition above that caused by the drug alone (control siRNA-transfected cells) in HCT-116 cells (FIGS. 29A-C), and A549 cells (FIGS. 30A-C). This combinatorial inhibitory effect was further increased when experiments were done in medium containing dialyzed FCS (FIGS. 29D-F; FIGS. 30D-F). The changes in the IC50 value for 5FU in HCT-116 and A549 cells following TYMS knockdown by individual siRNAs are listed in Table 16 below.

A549 cells [3] = experiment: 5FU toxicity in A549 cells after TYMS or DHFR knockdown, SYBR Green; format: cell-based, human; settings: 5FU continuous for 3 days, read-out: IC50 value of 5FU following TYMS knockdown, A549
Protocol: as §1, §2

**Q.** Which results are given for “SEQ ID NO: 4804: non-specific control siRNA against an irrelevant target (chain 1 AGCAGAGGGAATTCATCTCTCAGGC; chain 2 AGCAGAGGGAAUUCAUCUCUCAGGC; chemistry not given here; one strand in two spellings) [reference compound]”?
**A.** average tumor size (A549 xenograft tumor; six weeks after the cell inoculation, 10 nM siRNA pre-implantation): 370.7±63.8 mm^3; average tumor size (A549 xenograft tumor; thirty-three days after the cell inoculation, preliminary data): 172.3±36.1 mm^3; tumor volume (A549 xenograft tumor; twenty-six days after cell inoculation, preliminary data): 154.3±23.7 mm^3; average tumor volume (A549 xenografted tumors; IT#1: 50 μg i.t. 3 times per week for 2 weeks, day 15 after treatment initiation): 238.7±41.4 mm^3; tumor volume (A549 xenografted tumors; IT#2: 25 μg i.t. 3 times per week for 3 weeks, day 21 post-treatment initiation): 248.9±37.3 mm^3

**Q.** With “Alexa 555-labeled siRNA: Alexa 555-labeled control Stealth siRNA (Invitrogen) (chain 1 CCGCAACAACGCCATCTATGAGAAA; chain 2 CCGCAACAACGCCAUCUAUGAGAAA; Alexa 555 label, position not given here, Stealth siRNA, chemistry not given here; one strand in two spellings)” as the substance, how does the “cellular uptake of siRNA in tumor tissue (fluorescence)” value (A549 tumors; 6 h after injection) read?
**A.** The value was “red punctuations were seen in some tumor cells, indicative of uptake of siRNA”.

**Q.** What about the “intracellular localization of siRNA fluorescence” value (A549 tumors; 6 h after injection, overlay with DAPI) of the same substance?
**A.** Its value is “located in the cytoplasm around the periphery of the nuclei”.

**Q.** What about the “cellular uptake of siRNA in tumor tissue (fluorescence)” value (A549 tumors; 24 h after injection) of the same substance?
**A.** Its value is “also observed in the samples taken 24 h after injection, although in slightly lower number of cells”.

**Q.** Which results are given for “SEQ ID NO: 4833: siRNA targeting TYMS (chain 1 AGCAGAGGGAATTCATCTCTCAGGC; chain 2 AGCAGAGGGAAUUCAUCUCUCAGGC; chemistry not given here; one strand in two spellings)”?
**A.** cell growth (MTT assay) (A549 cells [1]): dose-dependent inhibition of cell growth; Growth Inhibition in A549 cells (A549 cells [2]): + (inhibits by at least 50%); IC50 (HCT-116 cells): 100 nM; IC50 (A549 cells [3]; cells transfected with 0.1 nM siRNA): 340 nM; IC50 (A549 cells [3]; cells transfected with 1 nM siRNA): 110 nM; IC50 (A549 cells [3]; cells transfected with 10 nM siRNA): 140 nM
